# Legend:
# Experiment in all cases: Minimal inhibitory concentration (M.I.C.), agar dilution method
# Conditions in all cases: TSA, inoculum 10^7 /ml
# [1] = test system: P. vulgaris IFO 3988; format: cell-based, Proteus vulgaris
# Description: (§1) (a) Determination of minimal inhibitory concentrations (Tables 1 to 8):
# (§2) Procedure: agar dilution method
# [2] = test system: P. vulgaris GN 4413; format: cell-based, Proteus vulgaris
# Description: as §1, §2
# [3] = test system: S. aureus 209P; format: cell-based, Staphylococcus aureus
# Description: as §1, §2
# [4] = test system: S. aureus 1840; format: cell-based, Staphylococcus aureus
# Description: as §1, §2
# [5] = test system: K. pneumoniae GN 3835; format: cell-based, Klebsiella pneumoniae
# Description: as §1, §2
# [6] = test system: K. pneumoniae DT; format: cell-based, Klebsiella pneumoniae
# Description: as §1, §2
# [7] = test system: P. mirabilis GN 4359; format: cell-based, Proteus mirabilis
# Description: as §1, §2
# [8] = test system: S. marcescens TN 24; format: cell-based, Serratia marcescens
# Description: as §1, §2
# [9] = test system: S. marcescens IFO 12648; format: cell-based, Serratia marcescens
# Description: as §1, §2
# [10] = test system: E. coli NIHJ JC-2; format: cell-based, Escherichia coli
# Description: as §1, §2
# [11] = test system: E. coli T-7; format: cell-based, Escherichia coli
# Description: as §1, §2
# [12] = test system: P. morganii IFO 3168; format: cell-based, Proteus morganii
# Description: as §1, §2
# [13] = test system: P. rettgeri GN4733; format: cell-based, Proteus rettgeri
# Description: as §1, §2
# [14] = test system: P. rettgeri TN 338; format: cell-based, Proteus rettgeri
# Description: as §1, §2
# [15] = test system: E. cloacae TN 1282; format: cell-based, Enterobacter cloacae
# Description: as §1, §2
# [16] = test system: E. coli 0-111; format: cell-based, Escherichia coli
# Description: The minimal inhibitory concentrations (M.I.C.) of some representative cephalosporin derivatives of this invention as produced by the procedures described in those examples and the minimal inhibitory concentrations of cephalothin [sodium 7-(2-thienylacetamido)-3-acetoxymethyl-3-cephem-4-carboxylate], cephaloridine [7-(2-thienylacetamido)-3-(1-pyridyl)methyl-3-cephem-4-carboxylic acid betaine] and cefazolin [sodium 7-(1H-tetrazol-1-yl)acetamido-3-(2-methyl-1,3,4-thiadiazol-5-yl)thiomethyl-3-cephem-4-carboxylate], which are among the clinically established and commercially available cephalosporins (as described, for example, in the New England Journal of Medicine 294, 24, 1976 and Journal of Pharmaceutical Science 64, 1899, 1975), both against various bacteria, as well as the therapeutic effects of some respresentative cephalosporin derivatives of this invention and of cephaloridine in infected mice, are shown in tables.
# as §1, §2
# [17] = test system: C. freundii GN 99; format: cell-based, Citrobacter freundii
# Description: as §1, §2
# [18] = test system: C. freundii GN 1706; format: cell-based, Citrobacter freundii
# Description: as §1, §2
Compound,minimal inhibitory concentration (M.I.C.) [1],minimal inhibitory concentration (M.I.C.) [2],minimal inhibitory concentration (M.I.C.) [3],minimal inhibitory concentration (M.I.C.) [4],minimal inhibitory concentration (M.I.C.) [5],minimal inhibitory concentration (M.I.C.) [6],minimal inhibitory concentration (M.I.C.) [7],minimal inhibitory concentration (M.I.C.) [8],minimal inhibitory concentration (M.I.C.) [9],minimal inhibitory concentration (M.I.C.) [10],minimal inhibitory concentration (M.I.C.) [11],minimal inhibitory concentration (M.I.C.) [12],minimal inhibitory concentration (M.I.C.) [13],minimal inhibitory concentration (M.I.C.) [14],minimal inhibitory concentration (M.I.C.) [15],minimal inhibitory concentration (M.I.C.) [16],minimal inhibitory concentration (M.I.C.) [17],minimal inhibitory concentration (M.I.C.) [18]
CCCNC(=O)O/N=C(\C(=O)NC1C(=O)N2C(C(=O)O)=C(COC(C)=O)CSC12)c1csc(=N)[nH]1 (stereo not drawn) [Example II - 12],0.39,12.5,1.56,1.56,0.39,0.1,0.1,12.5,6.25,0.39,3.13,0.78,0.2,≤ 0.012,6.25,0.024,0.39,0.78
CCNC(=O)O/N=C(\C(=O)NC1C(=O)N2C(C(=O)O)=C(COC(N)=O)CSC12)c1csc(=N)[nH]1 (stereo not drawn) [Example II - 8],0.1,100,3.13,3.13,0.2,0.05,0.1,6.25,6.25,0.2,1.56,3.13,0.05,≤ 0.012,12.5,0.024,0.1,0.39
"CNC(=O)O/N=C(\C(=O)NC1C(=O)N2C(C(=O)O)=C(CSc3nnc(C)s3)CSC12)c1csc(=N)[nH]1 (stereo not drawn) [Example II - 5, sodium 7-[2-(2-imino-4-thiazolin-4-yl)-2-methylcarbamoyloximinoacetamido]-3-(2-methyl-1,3,4-thiadiazol-5-yl)thiomethyl-3-cephem-4-carboxylate (syn-isomer)]",0.39,12.5,3.13,3.13,0.78,0.1,0.78,0.78,3.13,0.39,3.13,0.39,0.78,≤ 0.05,1.56,0.1,0.39,1.56
CCNC(=O)O/N=C(\C(=O)NC1C(=O)N2C(C(=O)O)=C(COC(C)=O)CSC12)c1csc(=N)[nH]1 (stereo not drawn) [Example II - 7],0.2,6.25,1.56,3.13,0.39,0.05,0.1,6.25,6.25,0.39,1.56,1.56,0.1,≤ 0.012,12.5,0.024,0.39,0.78

# Source: US4200575A, “7[(2-Thiazolyl)-2-(oxoimino)acetamido]cephalosporin derivatives” (Takeda Chemical Industries, Ltd., priority 1977, dated 1980)
